Laboratory results as given in patent US20220265629A1, “TREATMENT OF SYSTOLIC DYSFUNCTION AND HEART FAILURE WITH REDUCED EJECTION FRACTION WITH THE COMPOUND (R)-4-(1-((3-(DIFLUOROMETHYL)-1-METHYL-1H-PYRAZOL-4-YL)SULFONYL)-1-FLUOROETHYL)-N-(ISOXAZOL-3-YL)PIPERIDINE-1-CARBOXAMIDE” (MyoKardia, Inc., priority 2019, published 2022).

System: patients with stable HFrEF
Experiment: HFrEF study Part 1 (SAD Cohorts 1 and 2): TTE pharmacodynamics by plasma concentration group
Format: in vivo, human
Conditions: for A wave peak change from baseline, placebo-corrected (LS mean difference) / E wave peak change from baseline, placebo-corrected (LS mean difference) / E/A ratio change from baseline, placebo-corrected (LS mean difference) / E/e′ lateral change from baseline, placebo-corrected (LS mean difference) / LVEDD change from baseline, placebo-corrected (LS mean difference) / LVEDV change from baseline, placebo-corrected (LS mean difference) / LVEF change from baseline, placebo-corrected (LS mean difference) / LVESD change from baseline, placebo-corrected (LS mean difference) / LVESV change from baseline, placebo-corrected (LS mean difference) / LVFS change from baseline, placebo-corrected (LS mean difference) / LVGLS change from baseline, placebo-corrected (LS mean difference) / LVSV change from baseline, placebo-corrected (LS mean difference) / SET change from baseline, placebo-corrected (LS mean difference) / e′ lateral change from baseline, placebo-corrected (LS mean difference): pooled SAD Cohorts 1 and 2
Experimental: PD assessment was done by transthoracic echocardiography as described in Example 1 above. TTE evaluations of LVSV (derived from LVOT-VTI), LVEF, LVFS, SET, and other parameters were PD assessments at predetermined time points. The patients were on bed rest for 10 minutes before the TTEs were obtained. In Part 2 (MAD), TTEs were usually obtained before the morning close and/or at 7 hours postclose (i.e., close to the anticipated peak effect based on the PK profile from the healthy volunteer studies).
For both Cohorts 1 and 2, the pharmacodynamic effects of Compound I on echocardiographic markers of cardiac structure and function were analyzed by Compound I plasma concentration groups: <2000 ng/mL (low concentration group) and >2000 ng/mL (high concentration group) (Table 12).

[1] = high plasma concentration group (≥2000 ng/mL)

## Cn1cc(S(=O)(=O)[C@@](C)(F)C2CCN(C(=O)Nc3ccon3)CC2)c(C(F)F)n1 [Compound I, (R)-4-(1-((3-(difluoromethyl)-1-methyl-1H-pyrazol-4-yl)sulfonyl)-1-fluoroethyl)-N-(isoxazol-3-yl)piperidine-1-carboxamide]
350 mg, 1.5 and 3 h postdose
  SET prolongation in one patient: ~63 ms
350 mg, 3 to 9 hours postdose
  Mean SET prolongation for all patients: 16.2 ms
350 mg, 6 and 9 hours postdose
  SET prolongation in one patient: < 35 ms
SAD cohorts
  increase in SET: < 50 ms
  relative increases from baseline in cardiac contractility (SV, LVEF, FS): approximately 10%
[1]
  LV ejection fraction, mean (SE) increase from baseline: 4.4%
  LV global longitudinal strain, mean (SE) decrease: −2.1%
Plasma <2000 ng/mL
  A wave peak change from baseline, placebo-corrected (LS mean difference): -3.2 cm/s
  E wave peak change from baseline, placebo-corrected (LS mean difference): -1.1 cm/s
  E/A ratio change from baseline, placebo-corrected (LS mean difference): 0.09
  E/e′ lateral change from baseline, placebo-corrected (LS mean difference): 0.6
  LVEDD change from baseline, placebo-corrected (LS mean difference): 0.2 mm
  LVEDV change from baseline, placebo-corrected (LS mean difference): -2.5 mL
  LVEF change from baseline, placebo-corrected (LS mean difference): 4.1%
  LVESD change from baseline, placebo-corrected (LS mean difference): −1.3 mm
  LVESV change from baseline, placebo-corrected (LS mean difference): -4.0 mL
  LVFS change from baseline, placebo-corrected (LS mean difference): 3.1%
  LVGLS change from baseline, placebo-corrected (LS mean difference): −1.1%
  LVSV change from baseline, placebo-corrected (LS mean difference): 1.0 mL
  SET change from baseline, placebo-corrected (LS mean difference): 8 ms
  e′ lateral change from baseline, placebo-corrected (LS mean difference): -1 cm/s
Plasma ≥2000 ng/mL
  A wave peak change from baseline, placebo-corrected (LS mean difference): -8.8 cm/s
  E wave peak change from baseline, placebo-corrected (LS mean difference): -1.6 cm/s
  E/A ratio change from baseline, placebo-corrected (LS mean difference): 0.08
  E/e′ lateral change from baseline, placebo-corrected (LS mean difference): 0.2
  LVEDD change from baseline, placebo-corrected (LS mean difference): −0.3 mm
  LVEDV change from baseline, placebo-corrected (LS mean difference): -1.9 mL
  LVEF change from baseline, placebo-corrected (LS mean difference): 4.4%
  LVESD change from baseline, placebo-corrected (LS mean difference): −1.8 mm
  LVESV change from baseline, placebo-corrected (LS mean difference): -3.5 mL
  LVFS change from baseline, placebo-corrected (LS mean difference): 2.8%
  LVGLS change from baseline, placebo-corrected (LS mean difference): −2.1%
  LVSV change from baseline, placebo-corrected (LS mean difference): 9.0 mL
  SET change from baseline, placebo-corrected (LS mean difference): 36 ms
  e′ lateral change from baseline, placebo-corrected (LS mean difference): -1 cm/s
